# From US20230257396A1, “MACROCYCLES AND THEIR USE” (BLOSSOMHILL THERAPEUTICS, INC., priority 2020, published 2023)
# Columns and labels:
# Assay in all cases: KINOMEscan kinase binding assay (Eurofins/DiscoveRx), % Ctrl
# [1] = biological target: T1, kinases (Homo sapiens, UniProt P00533)
# T1 construct: purchased Eurofins/DiscoveRx; host or cells: E. coli BL21-derived host (T7 phage display) for most kinases; HEK-293 for the rest
# Summary of the method: (§1)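 Competition binding: DNA- or phage-tagged kinases (T7 phage in E. coli BL21, or HEK-293-expressed) with immobilized biotinylated ligand beads and test compound, 1 h at room temperature. Bead-bound kinase eluted and quantified by qPCR; % Ctrl = (compound − positive control)/(negative control − positive control) ×100 at a single compound concentration.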
# [2] = biological target: T2, kinases (Homo sapiens, UniProt P36888, R834Q)
# T2 construct: purchased Eurofins/DiscoveRx; host or cells: E. coli BL21-derived host (T7 phage display) for most kinases; HEK-293 for the rest
# T2 sequence (P36888 27-993 R834Q): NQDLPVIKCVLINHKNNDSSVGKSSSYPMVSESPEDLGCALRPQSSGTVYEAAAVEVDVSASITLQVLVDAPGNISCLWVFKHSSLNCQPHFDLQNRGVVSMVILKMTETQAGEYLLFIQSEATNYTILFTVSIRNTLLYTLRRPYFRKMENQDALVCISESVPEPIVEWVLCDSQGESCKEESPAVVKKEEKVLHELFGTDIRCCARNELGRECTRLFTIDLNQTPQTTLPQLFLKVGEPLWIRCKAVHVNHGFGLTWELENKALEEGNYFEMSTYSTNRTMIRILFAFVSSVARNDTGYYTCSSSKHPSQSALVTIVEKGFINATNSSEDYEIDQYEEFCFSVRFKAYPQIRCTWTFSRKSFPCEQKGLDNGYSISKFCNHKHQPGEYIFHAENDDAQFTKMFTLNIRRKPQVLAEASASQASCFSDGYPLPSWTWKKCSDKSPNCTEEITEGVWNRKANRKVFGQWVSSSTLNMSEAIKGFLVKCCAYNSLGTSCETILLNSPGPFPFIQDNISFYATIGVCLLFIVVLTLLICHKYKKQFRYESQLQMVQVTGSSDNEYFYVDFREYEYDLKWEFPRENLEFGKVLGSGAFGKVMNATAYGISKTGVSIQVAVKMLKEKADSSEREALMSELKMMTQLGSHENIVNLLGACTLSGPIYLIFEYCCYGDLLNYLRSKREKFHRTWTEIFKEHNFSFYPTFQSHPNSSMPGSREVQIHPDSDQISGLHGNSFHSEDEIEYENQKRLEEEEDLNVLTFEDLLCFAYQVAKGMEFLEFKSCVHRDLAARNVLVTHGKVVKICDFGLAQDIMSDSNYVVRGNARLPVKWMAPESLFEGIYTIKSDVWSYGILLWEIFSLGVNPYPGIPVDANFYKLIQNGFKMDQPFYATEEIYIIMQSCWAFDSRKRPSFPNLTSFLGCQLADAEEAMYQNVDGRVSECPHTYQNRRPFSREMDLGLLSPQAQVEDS
# Summary of the method: as §1
# [3] = tested on: kinases
# Summary of the method: as §1
# [4] = biological target: T3, kinases (Homo sapiens, UniProt P35916)
# T3 construct: purchased Eurofins/DiscoveRx; host or cells: E. coli BL21-derived host (T7 phage display) for most kinases; HEK-293 for the rest
# Summary of the method: as §1
# [5] = biological target: T4, kinases (Homo sapiens, UniProt P10721)
# T4 construct: purchased Eurofins/DiscoveRx; host or cells: E. coli BL21-derived host (T7 phage display) for most kinases; HEK-293 for the rest
# Summary of the method: as §1
# [6] = biological target: T5, kinases (Homo sapiens, UniProt P00519, Q252H)
# T5 construct: purchased Eurofins/DiscoveRx; host or cells: E. coli BL21-derived host (T7 phage display) for most kinases; HEK-293 for the rest
# Summary of the method: as §1
# [7] = 1 μM; EGFR(L747-E749del, A750P)
# [8] = 1 μM; EGFR(L747-S752del, P753S)
# [9] = 1 μM; ABL1(Q252H)-nonphosphorylated
# [10] = 1 μM; ABL1(Q252H)-phosphorylated
# T4 sequence (P10721 26-976): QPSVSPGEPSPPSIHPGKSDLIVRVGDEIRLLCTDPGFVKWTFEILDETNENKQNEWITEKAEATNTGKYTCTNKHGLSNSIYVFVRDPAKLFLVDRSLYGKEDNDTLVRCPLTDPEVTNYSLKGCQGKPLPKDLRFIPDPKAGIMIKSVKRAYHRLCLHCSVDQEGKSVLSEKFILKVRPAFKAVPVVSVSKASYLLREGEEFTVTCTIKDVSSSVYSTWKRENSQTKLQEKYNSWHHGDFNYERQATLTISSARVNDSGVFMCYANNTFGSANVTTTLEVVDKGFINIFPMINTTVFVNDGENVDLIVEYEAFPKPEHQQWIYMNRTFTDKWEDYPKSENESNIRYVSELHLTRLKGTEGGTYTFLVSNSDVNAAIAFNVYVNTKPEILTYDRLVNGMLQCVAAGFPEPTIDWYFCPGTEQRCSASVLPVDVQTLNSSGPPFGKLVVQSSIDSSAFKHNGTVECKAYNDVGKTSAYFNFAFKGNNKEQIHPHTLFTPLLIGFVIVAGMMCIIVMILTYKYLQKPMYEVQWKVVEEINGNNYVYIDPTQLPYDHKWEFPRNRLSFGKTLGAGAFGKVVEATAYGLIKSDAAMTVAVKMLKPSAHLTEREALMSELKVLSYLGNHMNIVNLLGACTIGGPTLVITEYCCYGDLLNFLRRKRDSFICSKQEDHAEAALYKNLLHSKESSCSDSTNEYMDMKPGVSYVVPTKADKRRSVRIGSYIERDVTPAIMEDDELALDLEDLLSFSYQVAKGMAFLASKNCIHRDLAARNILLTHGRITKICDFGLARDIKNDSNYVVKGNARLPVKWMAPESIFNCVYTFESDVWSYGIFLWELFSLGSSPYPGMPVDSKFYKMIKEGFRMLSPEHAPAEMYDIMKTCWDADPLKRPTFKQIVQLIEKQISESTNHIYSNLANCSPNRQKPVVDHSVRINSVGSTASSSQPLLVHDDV
# T1 sequence (P00533 25-1210): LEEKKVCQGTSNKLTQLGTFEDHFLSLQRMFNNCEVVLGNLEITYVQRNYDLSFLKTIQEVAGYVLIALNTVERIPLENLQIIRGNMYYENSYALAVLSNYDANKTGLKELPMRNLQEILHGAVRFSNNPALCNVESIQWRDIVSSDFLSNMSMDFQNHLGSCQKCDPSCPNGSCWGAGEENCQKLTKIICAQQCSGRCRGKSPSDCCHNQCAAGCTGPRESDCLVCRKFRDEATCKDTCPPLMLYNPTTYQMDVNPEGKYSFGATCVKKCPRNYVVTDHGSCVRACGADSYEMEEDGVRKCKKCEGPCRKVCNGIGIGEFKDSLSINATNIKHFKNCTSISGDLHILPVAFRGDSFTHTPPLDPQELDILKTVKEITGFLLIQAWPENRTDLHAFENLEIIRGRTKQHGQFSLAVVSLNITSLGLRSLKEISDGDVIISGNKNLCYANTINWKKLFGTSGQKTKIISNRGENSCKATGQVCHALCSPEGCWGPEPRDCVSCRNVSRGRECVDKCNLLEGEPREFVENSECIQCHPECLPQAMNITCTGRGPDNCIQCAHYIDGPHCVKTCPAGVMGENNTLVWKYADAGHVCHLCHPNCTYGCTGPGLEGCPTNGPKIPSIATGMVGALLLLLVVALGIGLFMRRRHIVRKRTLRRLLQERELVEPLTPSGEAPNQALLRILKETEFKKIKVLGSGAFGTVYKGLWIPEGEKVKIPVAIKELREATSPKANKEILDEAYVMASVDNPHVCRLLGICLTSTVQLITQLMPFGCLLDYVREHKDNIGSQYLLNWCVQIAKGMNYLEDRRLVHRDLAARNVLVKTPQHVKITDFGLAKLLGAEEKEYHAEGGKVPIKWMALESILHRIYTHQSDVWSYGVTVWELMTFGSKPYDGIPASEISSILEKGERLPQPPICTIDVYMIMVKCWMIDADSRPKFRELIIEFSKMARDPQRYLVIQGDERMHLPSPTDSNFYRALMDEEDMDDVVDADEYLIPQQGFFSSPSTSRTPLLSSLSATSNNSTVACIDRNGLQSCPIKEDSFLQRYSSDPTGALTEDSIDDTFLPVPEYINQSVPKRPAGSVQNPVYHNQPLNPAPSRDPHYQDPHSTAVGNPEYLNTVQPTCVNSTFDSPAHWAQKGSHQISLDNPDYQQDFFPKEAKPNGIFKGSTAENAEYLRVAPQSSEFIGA
# T3 sequence (P35916 25-1363): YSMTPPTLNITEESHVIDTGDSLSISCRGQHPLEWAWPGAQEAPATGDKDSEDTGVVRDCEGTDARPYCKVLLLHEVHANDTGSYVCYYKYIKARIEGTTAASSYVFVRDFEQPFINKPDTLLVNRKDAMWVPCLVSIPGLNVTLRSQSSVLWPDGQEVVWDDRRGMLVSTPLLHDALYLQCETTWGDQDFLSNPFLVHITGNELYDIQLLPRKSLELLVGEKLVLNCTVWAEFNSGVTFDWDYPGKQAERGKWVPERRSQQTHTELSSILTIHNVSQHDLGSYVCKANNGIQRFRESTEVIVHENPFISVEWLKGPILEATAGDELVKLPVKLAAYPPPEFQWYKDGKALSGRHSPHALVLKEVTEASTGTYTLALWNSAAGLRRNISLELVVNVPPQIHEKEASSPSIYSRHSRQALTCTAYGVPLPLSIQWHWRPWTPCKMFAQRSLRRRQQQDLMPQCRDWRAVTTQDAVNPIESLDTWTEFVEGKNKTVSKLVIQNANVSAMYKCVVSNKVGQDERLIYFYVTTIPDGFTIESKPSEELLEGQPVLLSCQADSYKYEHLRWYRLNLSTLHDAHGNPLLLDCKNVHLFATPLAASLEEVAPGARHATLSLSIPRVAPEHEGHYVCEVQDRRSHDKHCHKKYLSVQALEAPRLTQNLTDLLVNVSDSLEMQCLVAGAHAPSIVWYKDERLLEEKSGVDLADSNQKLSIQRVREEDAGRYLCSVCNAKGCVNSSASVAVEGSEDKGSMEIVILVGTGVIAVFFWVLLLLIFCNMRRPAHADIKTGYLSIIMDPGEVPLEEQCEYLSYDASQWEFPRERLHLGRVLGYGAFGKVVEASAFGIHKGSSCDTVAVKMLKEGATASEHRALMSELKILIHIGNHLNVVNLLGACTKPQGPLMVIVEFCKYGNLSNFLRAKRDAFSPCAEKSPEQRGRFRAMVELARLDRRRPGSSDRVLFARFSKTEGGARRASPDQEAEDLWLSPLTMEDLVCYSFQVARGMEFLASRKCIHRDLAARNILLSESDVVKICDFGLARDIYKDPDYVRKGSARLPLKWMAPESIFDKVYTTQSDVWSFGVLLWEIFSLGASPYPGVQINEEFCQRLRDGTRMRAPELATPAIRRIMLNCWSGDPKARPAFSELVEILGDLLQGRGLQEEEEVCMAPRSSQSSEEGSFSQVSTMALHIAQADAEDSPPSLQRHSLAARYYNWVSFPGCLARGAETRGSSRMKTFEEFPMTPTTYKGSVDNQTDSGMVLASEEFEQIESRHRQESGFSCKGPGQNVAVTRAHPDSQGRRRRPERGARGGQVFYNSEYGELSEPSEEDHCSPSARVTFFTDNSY
Compound,"% Ctrl, EGFR ([1]; 1 μM; EGFR) [% Ctrl]","% Ctrl, FLT3(R834Q) ([2]; 1 μM; FLT3(R834Q)) [% Ctrl]","% Ctrl, EGFR(L747-E749del, A750P) [3, 7] [% Ctrl]","% Ctrl, EGFR(L747-S752del, P753S) [3, 8] [% Ctrl]","% Ctrl, EGFR(L747-T751del, Sins) ([3]; 1 μM; EGFR(L747-T751del, Sins)) [% Ctrl]","% Ctrl, FLT3(ITD) ([3]; 1 μM; FLT3(ITD)) [% Ctrl]","% Ctrl, FLT3(ITD, D835V) ([3]; 1 μM; FLT3(ITD, D835V)) [% Ctrl]","% Ctrl, FLT3(ITD, F691L) ([3]; 1 μM; FLT3(ITD, F691L)) [% Ctrl]","% Ctrl, FLT4 ([4]; 1 μM; FLT4) [% Ctrl]","% Ctrl, KIT ([5]; 1 μM; KIT) [% Ctrl]","% Ctrl, KIT-autoinhibited ([5]; 1 μM; KIT-autoinhibited) [% Ctrl]","% Ctrl, ABL1(Q252H)-nonphosphorylated [6, 9] [% Ctrl]","% Ctrl, ABL1(Q252H)-phosphorylated [6, 10] [% Ctrl]",also measured
"Cc1cc2c([nH]1)/C=C1\C(=O)Nc3cnc(cc31)-c1cnn(C)c1COCCNC2=O [Ex.123, [3a(4)Z]-6,14-dimethyl-10,11,13,14-tetrahydro-2H-17,1-(azenometheno)pyrazolo[4,3-m]dipyrrolo[3,2-f:3′,4′-i][1,4]oxazacyclopentadecine-3,8(5H,9H)-dione]",98,100,9,100,74,93,100,39,94,97,97,92,100,–
"Cc1cc2c([nH]1)/C=C1\C(=O)Nc3cnc(cc31)-c1cn[nH]c1CNCCN(C)C2=O [Ex. 55, [3a(4)Z]-6,9-dimethyl-9,10,11,12,13,14-hexahydro-17,1-(azenometheno)pyrazolo[4,3-m]dipyrrolo[3,2-f:3′,4′-i][1,4]diazacyclopentadecine-3,8(2,5H)-dione]",–,–,–,–,–,–,–,–,–,–,–,–,–,"% Ctrl, EGFR ([1]; target EGFR; 1 μM): 59 % Ctrl; % Ctrl, FLT3(R834Q) ([2]; target FLT3(R834Q); 1 μM): 25 % Ctrl; % Ctrl, EGFR(L747-E749del, A750P) ([3]; target EGFR(L747-E749del, A750P); 1 μM): 82 % Ctrl; % Ctrl, EGFR(L747-S752del, P753S) ([3]; target EGFR(L747-S752del, P753S); 1 μM): 56 % Ctrl; % Ctrl, EGFR(L747-T751del, Sins) ([3]; target EGFR(L747-T751del, Sins); 1 μM): 66 % Ctrl; % Ctrl, FLT3(ITD) ([3]; target FLT3(ITD); 1 μM): 0.3 % Ctrl; % Ctrl, FLT3(ITD, D835V) ([3]; target FLT3(ITD, D835V); 1 μM): 1.2 % Ctrl; % Ctrl, FLT3(ITD, F691L) ([3]; target FLT3(ITD, F691L); 1 μM): 0.1 % Ctrl; % Ctrl, FLT4 ([4]; target FLT4; 1 μM): 31 % Ctrl; % Ctrl, KIT-autoinhibited ([5]; target KIT-autoinhibited; 1 μM): 39 % Ctrl; % Ctrl, KIT ([5]; target KIT; 1 μM): 74 % Ctrl; % Ctrl, ABL1(Q252H)-nonphosphorylated ([6]; target ABL1(Q252H)-nonphosphorylated; 1 μM): 2.8 % Ctrl; % Ctrl, ABL1(Q252H)-phosphorylated ([6]; target ABL1(Q252H)-phosphorylated; 1 μM): 1.7 % Ctrl"
"Cc1cc2c([nH]1)/C=C1\C(=O)Nc3ccc(cc31)OCCOCCNC2=O [Ex. 129, [16a(17)Z]-2-methyl-6,7,9,10-tetrahydro-1H-12,14-(ethanediylidene)dipyrrolo[3,2-i:3′,4′-l][1,4,7]dioxazacyclopentadecine-4,16(5H,15H)-dione]",98,84,88,98,85,32,4.3,40,83,100,78,87,86,–
"Cc1cc2c([nH]1)/C=C1\C(=O)Nc3ccc(cc31)OCCOCCN(C)C2=O [Ex.91, [16a(17)Z]-2,5-dimethyl-6,7,9,10-tetrahydro-1H-12,14-(ethanediylidene)dipyrrolo[3,2-i:3′,4′-l][1,4,7]dioxazacyclopentadecine-4,16(5H,15H)-dione]",99,29,100,94,68,2.1,0,0,9.9,82,73,2.8,11,–
"CNC(=O)[C@H]1CN(C)C(=O)c2cc(C)[nH]c2/C=C2\C(=O)Nc3cc(Cl)c(cc32)OCCO1 [Ex. 135, [7R,16a(17)Z]-19-chloro-N,2,5-trimethyl-4,16-dioxo-4,5,6,7,9,10,15,16-octahydro-1H-12,14-(ethanediylidene)dipyrrolo[3,2-i:3′,4′-l][1,4,7]dioxazacyclopentadecine-7-carboxamide]",100,63,82,80,98,52,11,25,100,55,82,43,47,–
"CN1CCOc2cc3c(cc2Cl)NC(=O)/C3=C\c2[nH]ccc2C(=O)N(C)CC1 [Ex. 164, [16a(17)Z]-19-chloro-2,5,8-trimethyl-5,6,7,8,9,10-hexahydro-12,14-(ethanediylidene)dipyrrolo[3,2-i:3′,4′-l][1,4,7]oxadiazacyclopentadecine-4,16(1H,15H)-dione]",–,–,–,–,–,–,–,–,–,–,–,–,–,"% Ctrl, EGFR ([1]; 1 μM; target EGFR): 95 % Ctrl; % Ctrl, FLT3(R834Q) ([2]; 1 μM; target FLT3(R834Q)): 13 % Ctrl; % Ctrl, EGFR(L747-E749del, A750P) ([3]; 1 μM; target EGFR(L747-E749del, A750P)): 19 % Ctrl; % Ctrl, EGFR(L747-S752del, P753S) ([3]; 1 μM; target EGFR(L747-S752del, P753S)): 47 % Ctrl; % Ctrl, EGFR(L747-T751del, Sins) ([3]; 1 μM; target EGFR(L747-T751del, Sins)): 45 % Ctrl; % Ctrl, FLT3(ITD) ([3]; 1 μM; target FLT3(ITD)): 0.9 % Ctrl; % Ctrl, FLT3(ITD, D835V) ([3]; 1 μM; target FLT3(ITD, D835V)): 0.3 % Ctrl; % Ctrl, FLT3(ITD, F691L) ([3]; 1 μM; target FLT3(ITD, F691L)): 1 % Ctrl; % Ctrl, FLT4 ([4]; 1 μM; target FLT4): 0.2 % Ctrl; % Ctrl, KIT ([5]; 1 μM; target KIT): 18 % Ctrl; % Ctrl, KIT-autoinhibited ([5]; 1 μM; target KIT-autoinhibited): 81 % Ctrl; % Ctrl, ABL1(Q252H)-nonphosphorylated ([6]; 1 μM; target ABL1(Q252H)-nonphosphorylated): 0.1 % Ctrl; % Ctrl, ABL1(Q252H)-phosphorylated ([6]; 1 μM; target ABL1(Q252H)-phosphorylated): 0 % Ctrl"
